# Measured values from a melting point compilation (Tetko et al.; mined from patent text by program, amines drawn as free bases though some values may be those of a salt).
row,Compound,melting point
1,CN1CC(CCN2CCN(c3ccccc3Cl)CC2)OC1=O (stereo not drawn),79.5 to 81.5 °C
2,CC(C)NC(=O)N[C@@H](Cc1ccccc1)[C@H](O)[C@H](O)[C@H](Cc1ccccc1)NC(=O)NC(C)C,220 to 222 °C
3,O=C(NCCO)c1cnc(C(F)(F)F)s1,128 to 130 °C
4,CCc1nc2c(cnn2CC)c(NC2CCOCC2)c1CNC(=O)c1cccc(C(=O)NCc2ccc(OC)c(-c3cccc(CN4CCNC(C)C4)c3)c2)c1 (stereo not drawn),110 to 112 °C
5,CON=Cc1cc(N=c2sc(=S)n3n2CCCC3)c(F)cc1Cl,128 to 133 °C
6,C=CCc1cc(C=CC(=O)O)ccc1O,132 to 133 °C
7,O=C(O)C1(c2ccc(Cl)cc2)OCC2(CO1)c1ccccc1Oc1ccccc12,244 to 246 °C
8,O=[N+]([O-])C=C1SCCN1Cc1cccnc1,96 to 100 °C
9,CC(C)CC(NS(=O)(=O)c1cccc2ccccc12)C(=O)NC(C(C)C)C(O)c1c(-c2ccccc2)c1=O (stereo not drawn),109 to 115 °C
10,COc1cc(N)c(Cl)cc1C(=O)NCC1CCN(CCCCCC(=O)c2ccc(Cl)cc2Cl)CC1,150 to 155 °C
11,O=C(O)CC[C@H](NC(=O)Nc1ccc(N(CCCl)CCCl)cc1)C(=O)O,116 to 118 °C
12,COC(=O)[C@H](O)[C@@H](NC(=O)OC(C)(C)C)c1ccc(F)cc1,125 °C
13,O=CNc1nc(OCc2ccccc2)ncc1F,153 to 157 °C
14,CCCCCCc1cc(CO)c(-c2ccccc2)c(-c2ccccc2)c1CO,136 to 137 °C
15,Nc1ncnc2c1c(-c1ccc(Oc3ccccc3)cc1)cn2C1CCC(O)CC1 (stereo not drawn),199 to 200 °C
16,CNC(=C[N+](=O)[O-])NCCSCc1csc(CN2CCCC2)n1,119 to 120 °C
17,O=C(O)c1cc(CCl)ccc1O,144 to 147 °C
18,C=C(C)CC(NC=O)(C(=O)OCC)C(=O)OCC,72 °C
19,N#CCCn1cc(-c2cccc(Cl)c2Cl)c(C(F)(F)F)c1,83 to 85 °C
20,CC(CCCc1ccc(CCCCNC(=N)NC(=O)c2nc(Cl)c(N)nc2N)cc1)NCC(O)c1cccc(O)c1 (stereo not drawn),82 to 86 °C
21,O[C@@]1(c2ccc(Cl)c(Cl)c2)CCC[C@H]2NCC[C@H]21 (racemic),190 to 191 °C
22,COc1cc(N)c(Cl)cc1C(=O)NCC1CCN(CCCCCCC(=O)c2ccc(Cl)cc2)CC1,137 to 138 °C
23,COc1cc(C(=O)O)c(C(=O)O)c(Cl)c1Cl,218 to 220 °C

row,Compound,melting point
1,Cc1c(F)c(N2CCNC(C)C2)cc2c1c(=O)c(C(=O)O)cn2C1CC1 (stereo not drawn),189 to 192 °C
2,CC(c1ccc(CCn2c(=O)[nH]c3cc(-c4ccc(F)cc4)sc3c2=O)cc1)N1CCCC1 (stereo not drawn),260 to 264 °C
3,Cc1oc(-c2ccco2)nc1COc1ccc(COc2nn(Cc3ccccc3)cc2C=O)cc1-c1ccccc1,122 to 123 °C
4,CCOC(=O)C(C)=NN(C)c1ccc(C(F)(F)F)cc1,71 to 72 °C
5,ON=C1CCC(C2CCCC2)=C1c1ccc(F)cc1,204 to 205 °C
6,C=CCC(N)(Cc1ccccc1)C(N)=O (stereo not drawn),120 to 121 °C
7,Fc1cccc(COc2ccc(Nc3ncnc4sc(C#Cc5nccs5)cc34)cc2Cl)c1,204 °C
8,"CCCc1cc(=O)oc2c3c(c4c(c12)OC(C)(C)C=C4)OC(C)C(C)C3O (single isomer, unassigned; (-))",52 to 54 °C
9,O=C(O)C1CCN(c2ncc(NS(=O)(=O)C(F)(F)F)c(NCc3ccccc3)n2)CC1,160 °C
10,COC1C(C)OC(OC2CC(C)(O)C(C(=O)O)c3cc4c(c(O)c32)C(=O)c2c(O)cc3c(c2C4=O)OC2OC3(C)C(O)C(N(C)C)C2O)C(OC)C1(C)OC (stereo not drawn),219 to 229 °C
11,CCNC(=O)c1sc(I)cc1[Si](C)(C)C,85 to 88 °C
12,O=C1CSc2nc(Oc3ccc(N4CCNCC4)cc3)ncc2N1,309 to 312 °C
13,N=C(NC(=O)OCc1ccccc1)c1ccc(C(=O)NCCC(=O)NCCC(=O)OCc2ccccc2)cc1,165 to 166 °C
14,CNC(=O)N1C2c3ccccc3OCC2(C(=O)OC)CN1C(=O)Nc1ccc(C(F)(F)F)cc1 (stereo not drawn),208 to 209 °C
15,O=C1NC(N2CCCCCC2)=N/C1=C\c1c[nH]c2ncc(Cl)cc12,310 to 320 °C
16,CCCCCCCCCCCCCCCCCC(=O)Nc1cccc([N+](=O)[O-])c1,75 to 76 °C
17,CCOC(=O)c1cc(C(O)(C(F)(F)F)C(F)(F)F)ccc1N,115 to 117 °C
18,CNC1(C)CN(c2nc3c(cc2F)c(=O)c(C(=O)O)cn3C2CC2)C1,283 to 286 °C
19,CC1(C)[C@@H](CN2CCCC2)CC[C@@]1(C)NCC(=O)N1C[C@@H](F)C[C@H]1C#N,108 to 112 °C
20,CCN1C[C@H](CN2CCN(C(c3ccccc3)c3ccccc3)CC2)C[C@@H]2c3cccc4[nH]cc(c34)C[C@H]21,203 to 205 °C
21,Nc1cc([N+](=O)[O-])c(Cl)cc1F,82 to 83.5 °C
22,NC(=O)CCN1C(=O)[C@@H](CC(=O)NCCc2ccc(Br)cc2)S[C@H]1c1ccc(C#Cc2ccccc2)s1 (relative stereo),224 to 227 °C
23,C(=C\c1cc(/C=C/c2ccccc2OCc2ccccn2)[nH]n1)/c1ccc2cc[nH]c2c1,113 to 120 °C

# The next lines start with the values.
row,melting point,Compound
1,93 to 94 °C,CCOC(=O)c1cc2c(C)cccc2n1CCNC(=O)OC(C)(C)C
2,214 to 218 °C,CC(=O)NCc1nc2c(N)nc3ccccc3c2n1CC(C)C
3,280 °C,O=C(NN=Cc1ccc(C(F)(F)F)c([N+](=O)[O-])c1)c1ccc(O)cc1
4,154 to 155 °C,Cc1oc(-c2cc3ccccc3s2)nc1COc1ccc(CCCC2OC(=O)NC2=O)cc1 (stereo not drawn)
5,70.5 to 71 °C,Fc1ccc(-c2cc(SC(F)(F)C(F)F)[nH]c2-c2ccc(F)cc2)cc1
6,191 to 195 °C,Cc1ccc2ccccc2c1N(C(=O)CO)C1CCOC1=O (stereo not drawn)
7,130 to 131 °C,CCN(C(=O)OC)c1cn2cc(Sc3ccccc3)ccc2n1
8,247 to 248 °C,Cc1cccc(-c2nc3ccc(Cl)nn3c2-c2ccnc(N)c2)c1
9,204 to 206 °C,CC1CC(=O)N(C)N=C1c1ccc2c(c1)OCC(=O)N2 (stereo not drawn)
10,92 to 93 °C,CCn1c(=O)ccc2cnc(Nc3cccc(F)c3OC)nc21
11,102 to 103 °C,FC(F)(F)c1cnc(CNC(=S)c2ccccc2Cl)c(Cl)c1
12,207 to 209 °C,N#Cc1ccc2cc(Cc3cc4ccc(C#N)cc4o3)oc2c1
13,319 to 320 °C,COC(=O)NC(=O)Nc1nc2c(Cl)cccc2s1
14,140 °C,CCCc1nn(C)c(C(N)=O)c1C(=O)c1ccc(N)cc1
15,239 to 240 °C,CC(C)n1nc(-c2cnc(N)nc2-c2ccccc2F)ccc1=O
16,195 to 198 °C,COc1cc(C(=O)N[C@H]2CCNC2)ccc1Nc1ncc2c(n1)N(C1CCCCC1)CC(F)(F)C(=O)N2C
17,190 °C,O=C(O)Cc1cccc2c(-c3ccccc3Cl)nccc12
18,157 to 158 °C,NC(=O)N(O)CC=Cc1ccc(-c2ccccc2)o1
19,142 to 143 °C,FC(F)(F)c1cccc2c(Cl)c3ccccc3c(Cl)c12
20,248 to 251 °C,Cc1nn(-c2ccccn2)c2ncc(C(=O)O)c(O)c12
21,192 to 194 °C,Cc1ccc(Sc2cncc3sc(C(N)=O)cc23)cc1C
22,115 to 116 °C,COC(=O)c1ccc(=O)n(CCCNC(=O)c2ccccn2)c1
23,105 to 108 °C,Cc1cccc(N)c1[N+](=O)[O-]
24,248 to 249 °C,CC1=c2c(cc3c(c2C)-c2ccccc2N=3)N=C1c1nc(C)no1
25,129 °C,CCOC(=O)C1=C(N)N=C(OCC)C(C(=O)OCC)C1c1cccc([N+](=O)[O-])c1 (stereo not drawn)
26,164 to 167 °C,CCOC(=O)C(C)(C)c1nsc2ccc(-n3c(=O)cc(C(F)(F)F)n(C)c3=O)cc12

row,melting point,Compound
1,118 to 120 °C,Cc1c2n(c3ccccc13)CCC2O (stereo not drawn)
2,162 to 165 °C,CC1=C(c2ccncc2)SC(Nc2ccccc2)C(=O)N1 (stereo not drawn)
3,313 to 315 °C,Cn1cc(S(=O)(=O)Cl)c(=O)c2ccccc21
4,228 to 232 °C,Cc1c(C(=O)N2C[C@@H](C)N[C@@H](C)C2)c2ccccc2n2cnc(C(=O)OC(C)(C)C)c12
5,108 to 110 °C,CCOc1nc2ccccc2nc1NC(=O)N1CCN(c2cccc(C)c2C)CC1
6,136 to 137 °C,CCNc1nc(-c2ccccc2)ncc1[N+](=O)[O-]
7,244 to 246 °C,CSc1ncc2c(n1)Nc1ccccc1-n1nnnc1-2
8,168 to 169 °C,O=C(NCCO)c1cccc(-c2ccc3c(n2)N(c2ccc(Cl)cc2Cl)CC3)c1
9,88 to 90 °C,Cc1cc(-c2cc(O)c(SCc3ccccc3)c(=O)o2)cc(C)n1
10,189 to 191 °C,Clc1ccc(C#Cc2ccc(C#Cc3cc4ccccc4s3)s2)cc1
11,251 °C,CS(=O)(=O)c1cccc(NC(=O)c2cnn3c(C(F)F)cc(-c4ccc(C(F)(F)F)cc4)nc23)c1
12,237 to 238 °C,COc1cc(-n2nc(C(=O)N(C)C)c3c4ccc(Cl)cc4n(C)c3c2=O)ccn1
13,73 to 75 °C,CCOc1ccc(OCCOCCOC)c2c1C(=O)N(CSc1ccccc1)S2(=O)=O
14,106 °C,CC(=O)c1cccc2cc3ccccc3cc12
15,173 to 175 °C,O=C1c2ccccc2-c2c1c1ccccc1c(=O)n2CCCO
16,222 to 224 °C,CC(C(N)=O)c1ccc(-c2ccc(F)cc2F)c(O)c1 (stereo not drawn)
17,179 to 180 °C,COCOc1ccccc1-c1cc(-c2cccc(C(=O)O)c2)c(C#N)c(NC(=O)c2cccs2)n1
18,95 to 97 °C,Cc1cc(-c2ccc(F)cc2)co1
19,161 °C,CSc1nn(C(=O)Oc2ccccc2)c(=O)n1N
20,80 to 81 °C,COC(=O)SC1C2=C(CCCC2)C(=O)N1c1ccc(Cl)cc1F (stereo not drawn)
21,146 to 148 °C,CC(=O)c1ccc(S(N)(=O)=O)c(Cl)c1
22,80 °C,Brc1ccc(SCc2noc(CSc3ccc(Br)cc3)n2)cc1
23,234 to 235 °C,N#Cc1ccc2oc(CCc3ccc(C(=O)O)cc3)cc2c1
24,92 to 96 °C,CCOC(=O)Cn1c(C(=O)NCc2nnc(CO)n2-c2sc(CC)cc2C(=O)c2ccccc2Cl)cc2ccccc21
25,195 to 198 °C,Cc1cccc(-c2[nH]c(C(C)C)nc2-c2ccc(F)c(-c3cc[nH]n3)c2)n1
26,68 °C,CCOC(=O)c1ccc(Oc2ccc(F)cc2)nc1
